Data reported in ChEMBL document CHEMBL1201862, “PubChem BioAssay data set” (2004).
One block for each molecule: values may come before it. Activity calls are given as the source filed them.

Columns and labels:
[1] = decrease of insulin promoter-GFP reporter – imaging, high-content screening, mouse beta cells (AID 1628); type: functional; conditions: MIN6
BJ [2] = test: BJ-TERT fibroblast viability loss – cell-based, RAS-independent, luminescence, dose response (AID 1933); type: functional; conditions: Homo sapiens
cells [3] = type: functional, cell-based
[4] = MIN6 cell viability loss – mouse insulinoma, cytotoxicity control, dose response (AID 2122); type: functional;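 note: confirmatory high-throughput counterscreen run to flag cytotoxic compounds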
BJ [5] = test: cells; type: functional, cell-based; conditions: Homo sapiens
[6] = Trypanosoma cruzi growth suppression in host cells – NIH3T3 host cells, beta-gal luminescence, confirmation (AID 2044); type: functional, cell-based;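 note: intracellular parasites grown in NIH/3T3 mouse fibroblasts as host cells; luminescent beta-galactosidase reporter signal from transgenic T. cruzi replicating inside host cells; inhibitors lower the luminescence signal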
cells [7] = type: functional, cell-based; remark: listed apart in the source
[8] = NIH3T3 cell viability loss – ATP luminescence, mouse fibroblasts, counter-screen, dose response (AID 2010); type: functional, cell-based;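 note: cells exposed to compound for about 90 hours before reading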
BJ [9] = test: BJ-TERT-LT-ST fibroblast viability loss – cell-based, RAS-independent, luminescence, dose response (AID 1935); type: functional; conditions: Homo sapiens;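 note: BJ fibroblasts immortalized with TERT plus LT and ST oncogenes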
[10] = DRD fibroblast viability loss – cell-based, non-viral oncogenic, luminescence, dose response (AID 1934); type: functional; conditions: Homo sapiens
INS1 = test: INS-1E survival protection against cytokine death – cell-based, luminescence, retest, dose response (AID 449756); type: functional; conditions: Rattus norvegicus;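 note: cell death triggered by IL-1 beta plus TNF-alpha plus IFN-gamma mixture; protective hits raise ATP signal compared with cytokine alone wells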
[11] = reduction of Shn3 3'UTR-driven luciferase in osteoblasts – cell-based, Clone20 osteoblasts, firefly luciferase, cherry-picked, dose response (AID 624132); type: functional;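 note: firefly luciferase luminescence from reporter carrying the Shn3 3'UTR in osteoblasts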
[12] = loss of viability in HepG2 cells – cell-based, CellTiter-Glo, cherry-picked, cytotoxicity control for Shn3 inhibitor project, dose response (AID 624134); type: functional
[13] = non-specific 3'UTR reporter inhibition in Clone20-Shn3RL – cell-based, Renilla luciferase, cherry-picked, counter-screen for Shn3 inhibitor project, dose response (AID 624133); type: functional
[14] = general mammalian cell viability loss – inhibitor set, cherry-pick, set 2, cytotoxicity control for miR-122 modulator project, dose response (AID 720697); type: functional, cell-based
[15] = general mammalian cell viability loss – activator set, cherry-pick, cytotoxicity control for miR-122 modulator project, dose response (AID 720690); type: functional, cell-based;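 note: HEK293T human cells scored for general mammalian cytotoxicity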
[16] = target: T1, Short transient receptor potential channel 4 (Mus musculus, UniProt Q9QUQ5); test: calcium entry via TRPC4 opening agents – cell-based, HEK293 TRPC4/mu-opioid, Fluo-4 calcium, dose response (AID 434937); type: functional
T1 sequence (Q9QUQ5 whole entry): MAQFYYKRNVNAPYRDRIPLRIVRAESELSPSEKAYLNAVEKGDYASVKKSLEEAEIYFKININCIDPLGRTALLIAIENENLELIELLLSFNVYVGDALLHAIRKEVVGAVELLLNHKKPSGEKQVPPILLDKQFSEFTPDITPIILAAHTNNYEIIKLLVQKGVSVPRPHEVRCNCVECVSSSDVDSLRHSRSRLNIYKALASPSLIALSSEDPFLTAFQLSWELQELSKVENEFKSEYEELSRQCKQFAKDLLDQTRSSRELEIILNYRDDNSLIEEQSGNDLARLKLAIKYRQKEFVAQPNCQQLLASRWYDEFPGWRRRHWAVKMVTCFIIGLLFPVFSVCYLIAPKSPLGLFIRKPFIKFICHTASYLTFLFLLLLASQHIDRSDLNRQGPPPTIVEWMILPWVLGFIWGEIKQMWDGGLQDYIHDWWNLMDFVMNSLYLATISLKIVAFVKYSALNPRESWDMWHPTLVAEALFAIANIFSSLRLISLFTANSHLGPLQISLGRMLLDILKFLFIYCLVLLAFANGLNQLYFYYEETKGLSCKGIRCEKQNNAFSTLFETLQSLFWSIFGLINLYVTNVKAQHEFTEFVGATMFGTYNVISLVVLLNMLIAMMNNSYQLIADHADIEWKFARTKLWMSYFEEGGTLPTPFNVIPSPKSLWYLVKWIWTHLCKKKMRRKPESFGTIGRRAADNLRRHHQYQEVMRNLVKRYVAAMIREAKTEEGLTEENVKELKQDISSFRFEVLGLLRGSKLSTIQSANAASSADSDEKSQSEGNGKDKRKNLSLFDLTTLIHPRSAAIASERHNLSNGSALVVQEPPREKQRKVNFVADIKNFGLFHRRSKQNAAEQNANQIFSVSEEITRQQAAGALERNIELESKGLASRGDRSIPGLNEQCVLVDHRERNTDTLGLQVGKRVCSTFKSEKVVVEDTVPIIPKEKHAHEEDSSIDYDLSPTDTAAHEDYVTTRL

[17] = target: Delta-type opioid receptor (Homo sapiens, UniProt P41143); test: Counterscreen for agonists of heterodimerization of the mu 1 (OPRM1) and delta 1 (OPRD1) opioid receptors: Luminescence-based cell-based high throughput dose response assay to identify agonists of OPRD1 homodimerization. [Related pubchem assays (depositor defined):AID504326, AID504355, AID504692, AID504904, AID504905]; type: functional
Sequence of Delta-type opioid receptor (P41143 whole entry): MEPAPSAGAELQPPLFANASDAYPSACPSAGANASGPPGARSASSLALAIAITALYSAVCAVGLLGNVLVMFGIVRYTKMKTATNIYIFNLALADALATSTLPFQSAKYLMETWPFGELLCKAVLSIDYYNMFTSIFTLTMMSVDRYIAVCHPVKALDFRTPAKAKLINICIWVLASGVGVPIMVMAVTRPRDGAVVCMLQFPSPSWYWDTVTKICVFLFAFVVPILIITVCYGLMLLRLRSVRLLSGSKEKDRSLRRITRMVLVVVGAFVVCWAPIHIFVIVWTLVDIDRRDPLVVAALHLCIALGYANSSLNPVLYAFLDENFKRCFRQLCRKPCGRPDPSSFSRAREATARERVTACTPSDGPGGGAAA

Mu-type opioid receptor = Mu-type opioid receptor (Homo sapiens, UniProt P35372); test: Counterscreen for agonists of heterodimerization of the mu 1 (OPRM1) and delta 1 (OPRD1) opioid receptors: Luminescence-based cell-based high throughput dose response assay to identify agonists of OPRM1 homodimerization.; type: functional;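 note: U2OS cells expressing OPRM1 and beta-arrestin as split beta-galactosidase partners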
Sequence of Mu-type opioid receptor (P35372 whole entry): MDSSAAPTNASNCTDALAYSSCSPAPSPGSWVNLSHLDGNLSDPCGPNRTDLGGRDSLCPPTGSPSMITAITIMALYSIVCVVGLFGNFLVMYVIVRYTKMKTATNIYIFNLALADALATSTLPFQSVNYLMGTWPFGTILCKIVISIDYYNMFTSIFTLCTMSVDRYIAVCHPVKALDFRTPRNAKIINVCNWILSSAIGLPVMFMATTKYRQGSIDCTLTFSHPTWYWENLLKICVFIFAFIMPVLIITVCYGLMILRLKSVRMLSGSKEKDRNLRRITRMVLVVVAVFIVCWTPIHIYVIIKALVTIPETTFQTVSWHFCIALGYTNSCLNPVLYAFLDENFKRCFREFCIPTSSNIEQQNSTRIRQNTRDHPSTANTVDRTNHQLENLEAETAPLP

[18] = target: 5-hydroxytryptamine receptor 5A (Homo sapiens, UniProt P47898); test: Counterscreen for agonists of OPRM1-OPRD1 heterodimerization: luminescence-based cell-based high throughput dose response assay to identify agonists of 5-hydroxytryptamine (serotonin) 5A receptor (HTR5A). [Related pubchem assays (depositor defined):AID504326, AID504355, AID504692, AID504904, AID504905]; type: functional
Sequence of 5-hydroxytryptamine receptor 5A (P47898 whole entry): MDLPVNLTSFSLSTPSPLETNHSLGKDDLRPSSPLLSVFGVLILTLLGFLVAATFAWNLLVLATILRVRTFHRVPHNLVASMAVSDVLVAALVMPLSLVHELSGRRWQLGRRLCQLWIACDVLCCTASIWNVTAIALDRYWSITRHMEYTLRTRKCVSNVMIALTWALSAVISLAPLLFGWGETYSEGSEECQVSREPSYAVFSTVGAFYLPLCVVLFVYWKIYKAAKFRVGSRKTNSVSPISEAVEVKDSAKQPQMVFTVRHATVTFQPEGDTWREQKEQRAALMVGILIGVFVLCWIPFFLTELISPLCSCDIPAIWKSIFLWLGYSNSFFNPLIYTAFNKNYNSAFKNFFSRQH

[19] = restored growth of temperature-sensitive Burl-1 yeast – whole organism, S. cerevisiae, Burl-1 ts mutant, luminescence, counter-screen for SUMOylation pathway inhibitor project, dose response (AID 463199); type: functional
[20] = target: T1, Short transient receptor potential channel 4; test: block of DAMGO-driven TRPC4 calcium entry – cell-based, HEK293 TRPC4/mu-opioid, Fluo-4 calcium, dose response (AID 434942); type: functional;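 note: potency of inhibitors blocking the TRPC4 calcium response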
[21] = target: FAD-linked sulfhydryl oxidase ALR (Homo sapiens, UniProt P55789); test: ALR-catalysed DTT oxidation blockers – biochemical, H2O2 detection, luminescence, cherry-pick, dose response (AID 493248)
Sequence of FAD-linked sulfhydryl oxidase ALR (P55789 whole entry): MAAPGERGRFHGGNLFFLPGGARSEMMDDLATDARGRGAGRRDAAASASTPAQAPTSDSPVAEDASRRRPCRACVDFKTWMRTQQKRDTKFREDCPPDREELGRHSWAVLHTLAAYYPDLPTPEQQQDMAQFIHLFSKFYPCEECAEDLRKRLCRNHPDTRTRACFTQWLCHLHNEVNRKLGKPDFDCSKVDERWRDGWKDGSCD

[22] = target: T1, Short transient receptor potential channel 4; test: SAR Analysis for the identification of selective inhibits of the transient receptor potential cation channel C4 (TRPC4): Automated Electrophysiology. [Related pubchem assays (depositor defined):AID2256]; type: functional
Cytochrome P450 1A2 = target: T2, Cytochrome P450 1A2 (Homo sapiens, UniProt P05177);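 note: PubChem cytochrome P450 panel assay, CYP1A2 panel member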
T2 sequence (P05177 whole entry): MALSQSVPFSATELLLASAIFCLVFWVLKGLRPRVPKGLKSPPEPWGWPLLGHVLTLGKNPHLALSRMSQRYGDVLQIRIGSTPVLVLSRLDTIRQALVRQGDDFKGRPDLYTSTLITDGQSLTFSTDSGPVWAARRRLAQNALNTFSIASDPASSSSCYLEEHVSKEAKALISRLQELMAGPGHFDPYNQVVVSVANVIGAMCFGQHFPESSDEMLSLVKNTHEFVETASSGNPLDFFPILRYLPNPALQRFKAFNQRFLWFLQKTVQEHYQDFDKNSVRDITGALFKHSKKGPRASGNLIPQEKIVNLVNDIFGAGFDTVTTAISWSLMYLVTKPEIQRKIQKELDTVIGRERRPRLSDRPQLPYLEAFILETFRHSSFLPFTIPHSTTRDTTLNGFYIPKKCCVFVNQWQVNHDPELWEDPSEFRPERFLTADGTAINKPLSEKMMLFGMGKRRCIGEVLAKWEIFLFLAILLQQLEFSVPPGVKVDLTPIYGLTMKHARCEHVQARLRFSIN

Cytochrome P450 2C9 = Cytochrome P450 2C9 (Homo sapiens, UniProt P11712)
Sequence of Cytochrome P450 2C9 (P11712 whole entry): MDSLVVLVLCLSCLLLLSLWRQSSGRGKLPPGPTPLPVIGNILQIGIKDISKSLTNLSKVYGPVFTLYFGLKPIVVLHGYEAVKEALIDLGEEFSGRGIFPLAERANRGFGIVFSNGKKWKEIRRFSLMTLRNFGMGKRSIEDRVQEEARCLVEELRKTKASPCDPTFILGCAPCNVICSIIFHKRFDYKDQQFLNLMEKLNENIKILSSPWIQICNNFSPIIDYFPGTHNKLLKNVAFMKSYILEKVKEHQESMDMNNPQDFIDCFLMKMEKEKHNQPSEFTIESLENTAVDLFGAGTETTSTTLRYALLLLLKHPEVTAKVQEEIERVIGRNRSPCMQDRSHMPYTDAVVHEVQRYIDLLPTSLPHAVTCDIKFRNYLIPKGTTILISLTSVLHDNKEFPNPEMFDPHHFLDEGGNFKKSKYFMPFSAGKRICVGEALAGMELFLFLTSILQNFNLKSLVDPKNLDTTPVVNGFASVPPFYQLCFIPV

[23] = target: DNA dC->dU-editing enzyme APOBEC-3A (Homo sapiens, UniProt P31941); test: Dose Response confirmation of small molecule APOBEC3A DNA Deaminase Inhibitors via a fluorescence-based single-stranded DNA deaminase assay. [Related pubchem assays (depositor defined):AID493011, AID493024]; type: functional
Sequence of DNA dC->dU-editing enzyme APOBEC-3A (P31941 whole entry): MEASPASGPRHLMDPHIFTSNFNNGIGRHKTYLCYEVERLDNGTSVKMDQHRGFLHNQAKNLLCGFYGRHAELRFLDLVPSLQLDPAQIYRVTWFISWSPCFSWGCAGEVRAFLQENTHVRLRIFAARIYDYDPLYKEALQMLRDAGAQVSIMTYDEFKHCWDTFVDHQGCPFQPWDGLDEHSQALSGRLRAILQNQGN

[24] = target: DNA dC->dU-editing enzyme APOBEC-3G (Homo sapiens, UniProt Q9HC16); type: functional;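 note: Dose-response counterscreen measuring inhibition of APOBEC3G DNA deaminase activity, run while confirming APOBEC3A inhibitors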
Sequence of DNA dC->dU-editing enzyme APOBEC-3G (Q9HC16 whole entry): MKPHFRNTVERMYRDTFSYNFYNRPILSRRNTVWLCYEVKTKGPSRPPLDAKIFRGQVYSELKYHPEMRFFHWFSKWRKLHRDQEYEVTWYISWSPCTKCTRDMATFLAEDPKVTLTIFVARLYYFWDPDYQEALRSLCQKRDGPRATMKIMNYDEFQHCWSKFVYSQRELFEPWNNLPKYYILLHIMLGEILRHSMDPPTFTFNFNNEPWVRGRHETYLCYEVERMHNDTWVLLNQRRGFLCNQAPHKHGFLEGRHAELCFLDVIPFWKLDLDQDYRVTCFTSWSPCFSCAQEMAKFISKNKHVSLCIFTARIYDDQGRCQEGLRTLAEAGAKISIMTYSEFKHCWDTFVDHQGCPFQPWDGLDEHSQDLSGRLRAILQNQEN

[25] = target: T3, Microphthalmia-associated transcription factor (Homo sapiens, UniProt O75030); test: reducers of TRPM1 reporter luminescence, concentration series – cell-based, SK-MEL-5, cherry-picked, set 3, MITF inhibitor project, dose response (AID 493073); type: functional;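 note: SK-MEL-5 melanoma cells with luciferase driven by the MITF target TRPM1 promoter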
T3 sequence (O75030 whole entry): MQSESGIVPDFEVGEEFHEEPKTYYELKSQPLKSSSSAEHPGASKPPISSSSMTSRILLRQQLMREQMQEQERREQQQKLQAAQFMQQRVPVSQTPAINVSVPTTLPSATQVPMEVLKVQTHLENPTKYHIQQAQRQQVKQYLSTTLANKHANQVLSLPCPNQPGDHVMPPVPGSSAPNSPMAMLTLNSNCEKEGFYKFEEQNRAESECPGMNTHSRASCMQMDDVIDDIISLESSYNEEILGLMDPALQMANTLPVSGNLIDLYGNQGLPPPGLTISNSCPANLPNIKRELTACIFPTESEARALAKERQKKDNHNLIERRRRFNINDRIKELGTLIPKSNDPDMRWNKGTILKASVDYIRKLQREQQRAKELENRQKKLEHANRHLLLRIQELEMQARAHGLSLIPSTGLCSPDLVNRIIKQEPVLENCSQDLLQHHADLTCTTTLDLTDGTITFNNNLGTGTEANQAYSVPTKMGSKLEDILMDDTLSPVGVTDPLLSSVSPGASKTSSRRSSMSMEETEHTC

A-375 = test: proliferation inhibition in MITF-low A375 cells – cell-based, cherry-pick samples, set 2, counter-screen for MITF modulator project, dose response (AID 540335); type: functional; conditions: Homo sapiens
CAAX prenyl protease 2 = CAAX prenyl protease 2 (Homo sapiens, UniProt Q9Y256); test: inhibition of Ras-converting CAAX protease Rce1 – biochemical, yeast membranes, quenched-peptide fluorescence, cherry-pick, dose response (AID 588849)
Sequence of CAAX prenyl protease 2 (Q9Y256 whole entry): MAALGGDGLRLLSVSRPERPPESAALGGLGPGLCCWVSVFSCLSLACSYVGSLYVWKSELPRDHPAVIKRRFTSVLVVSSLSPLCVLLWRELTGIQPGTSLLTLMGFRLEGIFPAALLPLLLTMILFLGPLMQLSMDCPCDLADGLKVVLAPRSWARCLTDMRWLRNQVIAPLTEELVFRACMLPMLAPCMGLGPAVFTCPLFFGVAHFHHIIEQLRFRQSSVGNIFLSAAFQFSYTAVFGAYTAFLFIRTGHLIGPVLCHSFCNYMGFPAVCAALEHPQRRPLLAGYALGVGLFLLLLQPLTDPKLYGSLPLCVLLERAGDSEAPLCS

Structure (SMILES): Cc1ccc(Nc2c(-c3ccccn3)nc3cc(C)ccn23)cc1
- IC50 [1]: 1.7 µM (active)
- EC50 (BJ [2]): 7.37 µM (active)
- EC50 (cells [3]): 4.69 µM (active)
- IC50 [4]: 0.61 µM (active)
- EC50 (BJ [5]): 12.2 µM (active)
- EC50 [6]: 0.951 µM (active)
- EC50 (cells [7]): 49.3 µM (active)
- EC50 [8]: 4.56 µM (active)
- EC50 (BJ [9]): 7.83 µM (inconclusive)
- EC50 [10]: 13.2 µM (active)
- AC50 (INS1): 4.81 µM (active)
- AC50 [11]: 1.36 µM (active)
- AC50 [12]: 4.06 µM (active)
- AC50 [13]: 61.3 µM (active)
- AC50 [14]: 5.48 µM (active)
- AC50 [15]: 15.5 µM (active)

- EC50 [16]: 1.68 µM (active)
- EC50 [17]: 39.4 µM (inactive)
- EC50 (Mu-type opioid receptor): > 92.5 µM (inactive)
- EC50 [18]: > 92.5 µM (inactive)
Structure (SMILES): CC(=O)Nc1ccc(CN2CCCC(C(=O)c3cccc(C(F)(F)F)c3)C2)cc1 (stereo unspecified)

Structure (SMILES): O=C1CN(C(=O)COC(=O)COc2ccc3c(c2)CCC3)c2ccccc2N1
- AC50 [19]: 48.6 µM (active)

- EC50 [20]: 0.749 µM (active)
- AC50 [21]: 4.7 µM (active)
- IC50 [22]: 4.28 µM (active)
- AC50 (Cytochrome P450 1A2): 8.91 µM (inconclusive)
- AC50 (Cytochrome P450 2C9): 20 µM (inconclusive)
Structure (SMILES): Cn1c(-c2ccc(F)cc2)cnc1NCc1ccc(F)cc1

Structure (SMILES): CCN1CCN(c2ccc(S(=O)(=O)N3CCOCC3)cc2NC(=O)/C=C/c2ccc([N+](=O)[O-])cc2)CC1
- IC50 [23]: 8.67 µM (active)
- IC50 [24]: 7.56 µM (active)
- AC50 [25]: 8.13 µM (active)
- AC50 (A-375): 28.6 µM (active)

- AC50 (CAAX prenyl protease 2): 12.1 µM (active)
Structure (SMILES): Cc1c(CCC(=O)O)c(=O)oc2cc(OCc3cccc(F)c3)ccc12
